Source: US9096601B2 (CSPC Zhongqi Pharmaceutical Technology (Shijiazhuang) Co., …, priority 2010, dated 2015)

Key:
Assay in all cases: In-vitro tumor cell proliferation inhibition, MTT
Type in all cases: cell-based, human
[1] = system: non-small cell lung carcinoma cell strain H1975 (EGFR L858R/T790M mutation); conditions: 72 hours
Method: (§1) The object of this assay was to test the inventive compounds for the inhibitory activity of in-vitro tumor cell proliferation. The MTT (tetreamethyl-azo-zole-salt) colorimetric method was used in this assay.
(§2) All of the above-mentioned non-small cell lung carcinoma cell strains and the breast carcinoma cell strain BT 474 were cultured with a RPMI-1640 complete culture medium containing 10% fetal bovine serum, 100 U/ml penicillin and 100 μg/ml streptomycin under 5% CO2 and at 37° C. The other cell strains were cultured with a DMEM complete culture medium containing 10% fetal bovine serum (having a MV4-11 cell content of 20%), 100 U/ml penicillin and 100 μg/ml streptomycin under 5% CO2 and 37° C.
(§3) A cell suspension having a cell concentration of 1-2×10^4 cells/ml was treated with a complete cell culture solution to adjust the cell concentration, wherein the cell concentrations for HCC827 and MV4-11 were adjusted to 6×10^4 cells/ml and 1×10^5 cells/ml respectively. The cell suspension was inoculated in a 96-well plate with 200 μl cell suspension/well and cultured overnight. Next day, the supernatant was drawn off and discarded. Then, the cells were treated with the tested compounds in a gradient concentration respectively. In the meanwhile, a negative control group free of the drug substance and an isovolumetric solvent control group (having a DMSO concentration of 1%) were used. The triplicate wells were used for each of dose groups. The culturing was conducted at 37° C. under 5% CO2. After 72 hours, […] having a concentration of 5 mg/ml was added to each of wells. The culturing was further conducted for 2-4 hours. The supernatant was discarded. Then […] was added to each of wells. The contents in the well were mixed homogenously by oscillation for 15 minutes. The absorbance (A) value was measured with a microplate reader at λ=570 nm (the A value is in the direct proportion to the number of living cells) and averaged. The relative cell proliferation inhibitory rate is (A570 control-group−A570 dose-group)/A570 control-group×100%. The assay was repeated for at least three times. The data was expressed as number average. The statistical data were analyzed using t-test. P<0.05 was considered significant. The cell proliferation inhibition of the following compounds was expressed as IC50 or inhibitory rate.

[2] = system: non-small cell lung carcinoma cell strain H292 (EGFR WT); conditions: 72 hours
Method: as §1, §2, §3

[3] = system: non-small cell lung carcinoma cell strain HCC827; conditions: 72 hours
Method: as §1, §2, §3

[4] = system: non-small cell lung carcinoma cell strain PC-9 (EGFR delE746-A750 deletion mutation); conditions: 72 hours
Method: as §1, §2, §3

[5] = system: acute myelogenous leukemia cell strain MV4-11; conditions: 72 hours
Source text: as §1
(§4) Human non-small cell lung carcinoma cell strains HCC827, PC-9, H1975 (EGFR L858R/T790M mutation) and H292 (EGFR WT), and other tumor type cell strains, including human acute myelogenous leukemia cell strain MV4-11, human chronic granulocytic leukemia cell strain K562, human squamous cell carcinoma cell strain A431, human breast carcinoma cell strains MDA-MB-468 and BT 474, human colon cancer cell strains SW480, HCT116 and SW620, human liver cancer cell strain Hep G2, human gastric cancer cell strain MK-45, and human malignant melanoma cell strain A375 used in this assay were all purchased from ATCC company, USA and kept in the laboratory. All of the above-mentioned non-small cell lung carcinoma cell strains and the breast carcinoma cell strain BT 474 were cultured with a RPMI-1640 complete culture medium containing 10% fetal bovine serum, 100 U/ml penicillin and 100 μg/ml streptomycin under 5% CO2 and at 37° C. The other cell strains were cultured with a DMEM complete culture medium containing 10% fetal bovine serum (having a MV4-11 cell content of 20%), 100 U/ml penicillin and 100 μg/ml streptomycin under 5% CO2 and 37° C.
as §3

[6] = system: breast carcinoma cell strain BT474; conditions: 72 hours
Source text: as §1, §4, §3

[7] = system: breast carcinoma cell strain MDA-MB-468; conditions: 72 hours
Source text: as §1, §4, §3

[8] = system: chronic granulocytic leukemia cell strain K562; conditions: 72 hours
Source text: as §1, §4, §3

[9] = system: colon cancer cell strain HCT116; conditions: 72 hours
Source text: as §1, §4, §3

[10] = system: colon cancer cell strain SW480; conditions: 72 hours
Source text: as §1, §4, §3

[11] = system: colon cancer cell strain SW620; conditions: 72 hours
Source text: as §1, §4, §3

[12] = system: gastric cancer cell strain MK-45; conditions: 72 hours, read-out: MK45 (IC50)
Source text: as §1, §4, §3

[13] = system: liver cancer cell strain Hep G2; conditions: 72 hours, read-out: HEPG2 (IC50)
Source text: as §1, §4, §3

[14] = system: malignant melanoma cell strain A375; conditions: 72 hours
Source text: as §1, §4, §3

[15] = system: squamous cell carcinoma cell strain A431; conditions: 72 hours
Source text: as §1, §4, §3

Row | IC50 [1] [nM] | IC50 [2] [nM] | IC50 [3] [nM] | IC50 [4] [nM] | IC50 [5] [nM] | IC50 [6] [nM] | IC50 [7] [nM] | IC50 [8] [nM] | IC50 [9] [nM] | IC50 [10] [nM] | IC50 [11] [nM] | IC50 [12] [nM] | IC50 [13] [nM] | IC50 [14] [nM] | IC50 [15] [nM] | SMILES
1 | 6310 | 1230 | 63.1 | 420 | 125 | 2630 | 3260 | 1600 | 10500 | 9950 | > 10000 | 1660 | 8460 | 6570 | 2570 | Cc1nc(Nc2ccc(N3CCN(C)CC3)cc2)nc2c1nc(Nc1ccccc1)n2C(C)C [Compounds 8-34]
2 | 1520 | 20.3 | 0.2 | 1.5 | 135 | 192 | 1920 | 232 | 676 | 5930 | 2300 | 1110 | 4340 | 3250 | 635 | CN1CCN(c2ccc(Nc3ncc4nc(Nc5ccc(F)c(Cl)c5)n(C5CCCC5)c4n3)cc2)CC1 [Compounds 8-35]
3 | > 10000 | 5850 | 130 | 348 | 102 | 4520 | > 10000 | 888 | > 10000 | > 10000 | > 10000 | > 10000 | > 10000 | > 10000 | > 10000 | CN1CCN(NC(=O)c2ccc(Nc3ncc4nc(Nc5cccnc5)n(C5CCCC5)c4n3)cc2)CC1 [Compounds 8-37]
4 | 501 | 268 | 16.5 | 209 | 1970 | 2090 | 4490 | 146 | 5430 | 5400 | 2140 | 3340 | 2200 | > 10000 | 2740 | CC(C)n1c(Nc2ccc(Cl)nc2)nc2cnc(Nc3ccc(N4CCN(C)CC4)cc3)nc21 [Compounds 8-41]
5 | > 10000 | 673 | 4260 | 3320 | 6640 | 5100 | 1700 | 922 | > 10000 | > 10000 | > 10000 | 5100 | > 10000 | 498 | 2240 | CC(C)n1c(Nc2ccc(OCc3cccc(F)c3)c(Cl)c2)nc2cnc(Nc3ccc(N4CCOCC4)cc3)nc21 [Compounds 8-42]
6 | 231 | 102 | 0.3 | 51.9 | 21.2 | 1830 | 1030 | 122 | 2570 | 5750 | 5750 | 234 | 5930 | 1910 | 484 | CN1CCN(c2ccc(Nc3ncc4nc(Nc5ccc(Br)cc5)n(C5CCCC5)c4n3)cc2)CC1 [Compounds 8-43]
7 | 695 | 2.9 | 0.3 | 1.5 | 1140 | 682 | 2670 | 96.5 | > 10000 | 6160 | 2510 | 1350 | > 10000 | 1740 | 409 | CN1CCN(c2ccc(Nc3ncc4nc(Nc5cccc([N+](=O)[O-])c5)n(C5CCCC5)c4n3)cc2)CC1 [Compounds 8-44]
8 | 1140 | 13.9 | 0.2 | 9.7 | 59.4 | 870 | 2870 | 218 | 7080 | 7750 | 4970 | 3740 | > 10000 | 9260 | 1890 | CN1CCN(c2ccc(Nc3ncc4nc(NCc5ccccc5)n(C5CCCC5)c4n3)cc2)CC1 [Compounds 8-45]
9 | 770 | > 10000 | 0.3 | 3.5 | 4690 | 792 | 751 | 250 | 9070 | 4010 | 3620 | 417 | > 10000 | 400 | 426 | C#Cc1cccc(Nc2nc3cnc(Nc4ccc(N5CCN(C)CC5)cc4)nc3n2C2CCCC2)c1 [Compounds 8-46]
10 | 884 | 44.2 | 0.3 | 16.3 | 224 | 554 | 3190 | 97.2 | 6090 | 5530 | 4950 | 1180 | 8460 | 1570 | 299 | CN1CCN(c2ccc(Nc3ncc4nc(Nc5ccc(Br)cc5F)n(C5CCCC5)c4n3)cc2)CC1 [Compounds 8-47]
11 | 4580 | 18.5 | 0.2 | 26.2 | 583 | 525 | 2130 | 230 | > 10000 | 9890 | 2940 | 297 | > 10000 | 2080 | 788 | c1ccc(Nc2nc3cnc(Nc4ccc(CN5CCOCC5)cc4)nc3n2C2CCCC2)cc1 [Compounds 8-48]
12 | 310 | 4.5 | 0.3 | 0.2 | 193 | 2670 | 987 | 121 | 1440 | 5040 | 1440 | 543 | 9240 | 1980 | 586 | CN1CCN(c2ccc(Nc3ncc4nc(Nc5cccc(F)c5)n(C5CCCC5)c4n3)cc2)CC1 [Compounds 8-49]
13 | 182 | > 10000 | 0.3 | 3.5 | 64.4 | 2160 | 207 | 30.5 | 2470 | 2720 | 964 | 218 | 8250 | 1560 | 82.9 | CN1CCN(c2ccc(Nc3ncc4nc(Nc5ccccc5)n(C5CCCCC5)c4n3)cc2)CC1 [Compounds 8-50]
14 | 630 | 22.3 | 0.2 | 9.5 | 3.6 | 764 | 351 | 11.3 | 4140 | 6720 | 733 | 248 | 8220 | 539 | 248 | CN1CCN(c2ccc(Nc3ncc4nc(Nc5cccc(O)c5)n(C5CCCC5)c4n3)cc2)CC1 [Compounds 8-51]
